In brackets after ≈: the same amount, converted by molar mass.
What was measured:
[1] = target: T1, murine Syk tyrosine kinase protein (GST:Syk 6-242) (Mus musculus, UniProt P48025); assay: ADA method: displacement of the binding of scFv G4G11 with Syk (ELISA); conditions: small molecules at 10 μM, scFv G4G11 100 nM; read-out: In vit. inhib.: mean inhibition % of the binding of scFv G4G11 with Syk in the ADA method
T1 construct: made in house
In short: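 GST:Syk 6-242 (murine) was immobilised at 10 μg ml^−1 and pre-incubated 1 h at ambient temperature with compounds at 10 μM final in PBS. scFv G4G11 was then added at 100 nM for 1 h. Bound scFv was detected via its C-terminal c-myc tag with HRP-9E10, and % inhibition was taken from signals with versus without compound.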

RBL-2H3 cells = assay: cells; type: cell-based, rat; conditions: Rattus norvegicus; RBL-2H3 cells; read-out: Degran. IC50: concentration inhibiting mast cell degranulation by 50%
In short: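 RBL-2H3 rat basophils sensitized 12-16 h with anti-DNP IgE (0.5 μg/ml), pretreated 90 min at 37° C with compound (DMF 0.25% vehicle), then stimulated 45 min with DNP-BSA (50 ng ml^−1) or ionomycin (1.5 μM). Degranulation read as β-hexosaminidase release.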

SMILES | inhibition at 10 µM [1] | IC50 (RBL-2H3 cells)
CSc1nnc2c(n1)OC(c1cccc(OCc3ccccc3)c1)N(C(C)=O)c1ccccc1-2 (stereo not drawn) [Molecule 63, 7-acetyl-6-[3-(benzyloxy)phenyl]-3-(methylthio)-6,7-dihydro [1,2,4] triazino[5,6-d][3,1] benzoxazepine] | 38.5% | ~5 µg/mL (≈ 10.6 µM)
COc1cccc2cc(C(=O)C3=C(O)C(=O)N(CCCn4ccnc4)C3c3ccccn3)oc12 (stereo not drawn) [Molecule 64] | 37.5% | > 10 µg/mL
CN(C)S(=O)(=O)c1ccc(C(=O)C2=C(O)C(=O)N(CCCN3CCOCC3)C2c2cccnc2)cc1 (stereo not drawn) [Molecule 65, 4-{[4-hydroxy-1-[3-(4-morpholinyl)propyl]-5-oxo-2-(3-pyridinyl)-2,5-dihydro-1H-pyrrol-3-yl]carbonyl}-N,N-dimethylbenzenesulphonamide] | 37% | > 10 µg/mL
Cc1ccc(-c2nnc(Nc3cccc(O)c3)c3ccccc23)cc1S(=O)(=O)NC(C)(C)CO [Molecule 67, N-(2-hydroxy-1,1-dimethylethyl)-5-{4-[(3-hydroxyphenyl)amino]-1-phthalazinyl}-2-methylbenzenesulphonamide] | 32% | > 10 µg/mL
O=C(C1=C(O)C(=O)N(CCCN2CCOCC2)C1c1ccccc1F)c1ccc2c(c1)OCO2 (stereo not drawn) [Molecule 68, 4-(1,3-benzodioxol-5-ylcarbonyl)-5-(2-fluorophenyl)-3-hydroxy-1-[3-(4-morpholinyl)propyl]-1,5-dihydro-2H-pyrrol-2-one] | 30% | ~10 µg/mL (≈ 21.3 µM)
COc1ccc(NC(=O)CSc2nc3ccccc3c(=O)n2Cc2ccco2)c(OC)c1 [Molecule 69] | 30% | ~5 µg/mL (≈ 11.1 µM)
COc1cccc(C(=O)N(Cc2cc3ccc(C)cc3nc2C)c2ccccc2OC)c1 [Molecule 70] | 30% | > 10 µg/mL
COc1cccc(C2C(C(=O)c3ccc(Cl)cc3)=C(O)C(=O)N2CCN2CCOCC2)c1 (stereo not drawn) [Molecule 71, 4-(4-chlorobenzoyl)-3-hydroxy-5-(3-methoxyphenyl)-1-[2-(4-morpholinyl)ethyl]-1,5-dihydro-2H-pyrrol-2-one] | 29% | > 10 µg/mL
O=C(Nc1cccc2ccccc12)OCCn1nnnc1C1(N2CCOCC2)CCCCC1 [Molecule 76, 2-{5-[1-(4-morpholinyl)cyclohexyl]-1H-tetrazol-1-yl}ethyl 1-naphthylcarbamate] | 27% | > 10 µg/mL

Results, then the compound that gave them:

inhibition at 10 µM [1] | IC50 (RBL-2H3 cells) | SMILES
28% | ~10 µg/mL (≈ 22.5 µM) | COc1ccc(OCC(=O)NCc2cc(-c3nn(C)c(=O)c4ccccc34)ccc2C)cc1 [Molecule 72, 2-(4-methoxyphenoxy)-N-[2-methyl-5-(3-methyl-4-oxo-3,4-dihydro-1-phthalazinyl)benzyl]acetamide]
28% | > 10 µg/mL | COc1ccc(C2(CNC(=O)c3ccc(NC(=O)c4ccco4)cc3)CCOCC2)cc1 [Molecule 73, N-{4-[({[4-(4-methoxyphenyl)tetrahydro-2H-pyran-4-yl]methyl}amino)carbonyl]phenyl}-2-furamide]
27.5% | > 10 µg/mL | COc1cccc(C2C(C(=O)c3ccccc3)=C(O)C(=O)N2CCCN2CCOCC2)c1OC (stereo not drawn) [Molecule 74, 4-benzoyl-5-(2,3-dimethoxyphenyl)-3-hydroxy-1-(3-(4-morpholinyl)propyl]-1,5-dihydro-2H-pyrrol-2-one]
26% | > 10 µg/mL | COC(=O)c1ccc(NC(=O)CC2C(=O)N(c3ccccc3)C(=O)N2Cc2ccc3c(c2)OCO3)cc1 (stereo not drawn) [Molecule 77, methyl 4-({[3-(1,3-benzodioxol-5-ylmethyl)-2,5-dioxo-1-phenyl-4-imidazolidinyl]acetyl}amino)benzoate]
25% | > 10 µg/mL | O=C(Nc1ccccc1C(=O)N1CCCC1)c1ccc(CN2CCc3ccccc3C2)cc1 [Molecule 78, 4-(3,4-dihydro-2(1H)-isoquinolinyl-methyl)-N-[2-(1-pyrrolidinylcarbonyl)phenyl]benzamide]
25% | > 10 µg/mL | CCN1C2=C(C(=O)CCC2)C(c2ccc(OCc3ccc(C)cc3)c(Cl)c2)C2=C1CCCC2=O [Molecule 79]
